Results reported in patent publication US20190343796A1, “COMPOSITION FOR EXTERNAL USE” (FUJIFILM Toyama Chemical Co., Ltd., priority 2016, published 2019).

Assay: Solubility of maleate of compound A in representative solvents
Type: physicochemical
Source text: Among these solvents, a solvent having a high solubility of compound A and a salt thereof is preferred.

Which “Solubility of maleate of compound A at 25° C.” value (shortened to “Solubility”) (Benzyl alcohol, 25° C.) does the source give for `OC1CN(CCCOCCc2ccc3sccc3c2)C1` [maleate of compound A, 1-(3-(2-(1-benzothiophen-5-yl)ethoxy)propyl)azetidin-3-ol] here?
Its value is 35 g/100 g of solvent.

What about the “Solubility” value (Butylene glycol, 25° C.) of the same compound?
Its value is 5 g/100 g of solvent.

What about the “Solubility” value (Dimethyl sulfoxide, 25° C.) of the same compound?
The value was >50 g/100 g of solvent.

What about the “Solubility” value (Dipropylene glycol, 25° C.) of the same compound?
The value was 8 g/100 g of solvent.

What about the “Solubility” value (Ethanol, 25° C.) of the same compound?
The value was 3 g/100 g of solvent.

What about the “Solubility” value (N-methyl-2-pyrrolidone, 25° C.) of the same compound?
The value was >50 g/100 g of solvent.

And the “Solubility” value (Polyethylene glycol 200, 25° C.)?
Its value is 10 g/100 g of solvent.

And the “Solubility” value (Polyethylene glycol 400, 25° C.)?
The value was 16 g/100 g of solvent.

And the “Solubility” value (Propylene glycol, 25° C.)?
Its value is 10 g/100 g of solvent.
